The values below are quoted from earlier work in US20050244367A1 (priority 2004, published 2005).

The data set has as its system PLA2. The conditions noted are these: art-known PLA2 inhibitor classes, order of magnitude given in words.
In the case of `CCC(CCCCSc1ccc(C)cc1)c1ccc(F)cc1` (stereo not shown), the IC50 result is on record as “μM range”. In the case of `CCN(CC)CCN(Cc1ccc(-c2ccc(C(F)(F)F)cc2)cc1)C(=O)Cn1cc(Cc2ccn(C)n2)c(=O)nc1SCc1ccc(F)cc1`, the IC50 result is “nM or subnM range”. Turning to `CC(C)c1ccc2c(c1)CCC1C(C)(CNCCC(N)c3ccc(F)cc3)CCCC21C` (stereo not shown), the IC50 result is reported as “μM range”. Consider `CCc1c(CC(N)=O)c2cc(OCCCP(=O)(O)O)ccc2n1Cc1ccccc1`, for which the IC50 result is “sub μM range”. Take `COC1=CCC2=C(CCC3C2CC[C@@]2(C)C3CC[C@@H]2N(C)CCCN(C)C)C1` (stereo partly shown): the IC50 result is “sub μM range”. As for `O=C(O)CC[C@@H](CSc1ccc(Cc2ccccc2)cc1)NC(=O)CCCCCCc1ccccc1`, the IC50 entry is listed as “sub μM range”. Turning to `CC(C)c1ccc2c(c1)CCC1C(C)(CNCCC(=O)c3ccc(F)cc3)CCCC21C` (stereo not shown), the IC50 result is on record as “μM range”.
